≈ marks a conversion by molar mass, not a printed value. Where “and” joins values, the source holds several entries; their conditions need not be identical. Equal values may be shown once.
How the values were obtained:
[1] = Solubility tests in 0.5M LiTFSI DME/DOL electrolyte; format: physicochemical; details: 0.5M LiTFSI in DME/DOL (v:v=1:1)
Protocol: In an argon-filled glovebox, certain mass of compounds 1-4 solids were added to vials. Then, 0.5M solution of LiTFSI in DME/DOL (v:v=1:1) was slowly added dropwise and the mixture was manually stirred until all material visibly dissolved. The amount of LiTFSI solution used was recorded to determine the solubility of each compound in the electrolyte. The order of solubility from highest to lowest is compound 4 (163.7 mmol L^−1), compound 1 (12.48 mmol L^−1), compound 2 (3.57 mmol L^−1), and compound 3 (2.76 mmol L^−1).

[2] = UV-vis of soaked solutions from cathode/separator at 50% state-of-discharge; format: physicochemical; details: ~360 nm; 50% state-of-charge; DME/DOL
Protocol: The CR2032 coin cell with cathode 2 or cathode 4 was discharged at the rate of 100 mA g^−1 until 50% state-of-discharge and was disassembled in an argon-filled glovebox. Then, the cathode and separator were immersed into 1.0 mL DME/DOL(1/1 v %) solvent for 6h. For the UV-vis absorption measurements, 30 μL of solution was extracted from the soaked vials and diluted with 3000 μL of DME/DOL solvent.

| solubility in the electrolyte [1] | melting point | absorbance intensity of soaked solution, higher than that of compound 2 [2] [%] | SMILES |
| --- | --- | --- | --- |
| 2.76 mM (≈ 2300 µg/mL) | 332 to 334 °C | – | O=C1C(=O)c2ccc(cc2)-c2ccc(cc2)C(=O)C(=O)c2ccc(cc2)-c2ccc(cc2)C(=O)C(=O)c2ccc(cc2)-c2ccc(cc2)C(=O)C(=O)c2ccc(cc2)-c2ccc1cc2 [compound 3] |
| 164 ± 1 mM and 163.7 mM | – | 300 | O=C(C(=O)c1ccc2ccccc2c1)c1ccc2ccccc2c1 [compound 4, 1,2-bis(2-naphthyl)ethan-1,2-dione, reference compound] |
| 12.48 mM (≈ 6600 µg/mL) | – | – | O=C1C(=O)c2ccc(cc2)C(=O)C(=O)c2ccc(cc2)C(=O)C(=O)c2ccc(cc2)C(=O)C(=O)c2ccc1cc2 [compound 1] |
| 3.6 ± 0.1 mM and 3.57 mM | > 360 °C (dec.) | – | O=C1C(=O)c2ccc3cc(ccc3c2)C(=O)C(=O)c2ccc3cc(ccc3c2)C(=O)C(=O)c2ccc3cc(ccc3c2)C(=O)C(=O)c2ccc3cc1ccc3c2 [compound 2] |

Reference: patent publication US20240290976A1, “CYCLOTETRABENZIL COMPOUNDS FOR ELECTROCHEMICAL LITHIUM-ION STORAGE” (UNIVERSITY OF HOUSTON SYSTEM, priority 2023, published 2024)
